Test results published in patent US11066447B2, “Aureobasidium derivatives and methods of synthesis” (AureoGen Biosciences, Inc., priority 2016, dated 2021).
In brackets after ≈: the same amount, converted by molar mass. Read-outs that look alike come from different tables or passages of the source. One block for each compound: values may come before it. Numbered stars: 1 amine (or outer) side, 2 acyl side, 3 side chain; on linkers, the order of the positions; unused ones are H or OH. Square brackets hold non-standard residues; d marks the D form. Peptide text beside a SMILES is read from it. X19 = CN([C@@H](Cc1cccc(-c2ccc(OCc3ccccc3)cc2)c1)C(=O)[*:2])[*:1]; X3 = CN1CCN(c2ccc(-c3cccc(C[C@@H](C(=O)[*:2])N(C)[*:1])c3)cn2)CC1; X23 = CN([C@@H](Cc1cccc(-c2cccc3c2cnn3C)c1)C(=O)[*:2])[*:1]; Hmp(2R,3S) = CC[C@H](C)[C@@H](O)C(=O)O; NMeVal(β-OH) = CN[C@H](C(=O)O)C(C)(C)O; NMeV = CN[C@H](C(=O)O)C(C)C

Key:
[1] = test system: C. albicans MMX 2000 ATCC 10231; experiment: MIC assay (CLSI microdilution); format: cell-based; settings: Candida albicans
[2] = test system: A. fumigatus MMX 6781 ATCC MYA-4609; experiment: MIC/MEC assay (CLSI microdilution); format: cell-based; settings: Aspergillus fumigatus
Method in brief: (§1)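 CLSI broth microdilution in RPMI-1640 with 0.002% Tween-80; MMX 5280 was also tested without Tween-80. AbA compounds were two-fold serially diluted in 95% ethanol. Aspergillus spore inoculum was approx. 0.2-2.5×10^4 CFU/mL final.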

[3] = test system: A. niger MMX 0624 ATCC 16888; experiment: MIC/MEC assay (CLSI microdilution); format: cell-based
Method in brief: as §1

A. fumigatus MMX 5944 = experiment: MIC/MEC assay (CLSI microdilution); format: cell-based
Method in brief: as §1

[4] = test system: A. fumigatus MMX 6782 ATCC 13073; experiment: MIC/MEC assay (CLSI microdilution); format: cell-based; settings: Aspergillus fumigatus
Method in brief: as §1

[5] = test system: A. fumigatus from Aureogen; experiment: MIC/MEC assay (CLSI microdilution); format: cell-based; settings: Aspergillus fumigatus
Method in brief: as §1

A. flavus MMX 5948 = experiment: MIC/MEC assay (CLSI microdilution); format: cell-based; settings: Aspergillus flavus
Method in brief: as §1

[6] = test system: A. fumigatus MMX 5280 ATCC MYA-3626; experiment: MIC/MEC assay (CLSI microdilution); format: cell-based, Aspergillus fumigatus
Method in brief: as §1

[7] = test system: C. albicans MMX 2000 ATCC 10231; experiment: MIC assay (CLSI microdilution); format: cell-based; settings: Candida albicans, ATCC10231, RPMI plus 0.002% Tween-80; read-out: MIC
[8] = test system: C. neoformans MMX 0634 ATCC 90112; experiment: MIC assay (CLSI microdilution); format: cell-based; settings: Cryptococcus neoformans, read-out: MIC
[9] = test system: C. parapsilosis MMX 2323 ATCC 22019; experiment: MIC assay (CLSI microdilution); format: cell-based, Candida parapsilosis
Method in brief: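 Broth microdilution MIC testing of Candida parapsilosis ATCC 22019 followed CLSI methods in RPMI-1640, with or without 0.002% Tween-80. Yeast grown 48 hours at 35° C on Sabouraud dextrose agar was suspended to a 0.5 McFarland standard and diluted 1:100 to roughly 0.5-2.5×10^3 CFU/mL. The MIC was the lowest concentration preventing visible growth.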

[10] = 48 h, RPMI plus 0.002% Tween-80, read-out: MIC
[11] = RPMI plus 0.002% Tween-80, 48 hr
[12] = MMX5948, 48 h, RPMI plus 0.002% Tween-80
[13] = Aspergillus fumigatus, 48 h, RPMI plus 0.002% Tween-80, read-out: MEC
[14] = Aspergillus fumigatus, 48 h, Without Tween-80, read-out: MEC
[15] = ATCC90112, RPMI plus 0.002% Tween-80
[16] = ATCC22019, RPMI plus 0.002% Tween-80, read-out: MIC
[17] = ATCC22019, Without Tween-80, read-out: MIC
[18] = RPMI plus 0.002% Tween-80, 48 hr, read-out: MIC

MIC ([1]; ATCC10231, Without Tween-80, read-out: MIC): 0.5 µg/mL (≈ 0.392 µM) | MIC [2, 10]: 0.12 µg/mL | MIC ([3]; Aspergillus niger, ATCC16888, 48 h, RPMI plus 0.002% Tween-80, read-out: MIC): 0.015 µg/mL | MIC (A. fumigatus MMX 5944; Aspergillus fumigatus, MMX5944, 48 h, RPMI plus 0.002% Tween-80, read-out: MIC): 0.12 µg/mL | MIC ([4]; ATCC13073, 48 h, RPMI plus 0.002% Tween-80, read-out: MIC): 0.12 µg/mL | MIC [5, 10]: 0.12 µg/mL | MIC (A. flavus MMX 5948; MMX5948, 48 h, RPMI plus 0.002% Tween-80, read-out: MIC): 0.015 µg/mL | MIC ([6]; Aspergillus fumigatus, 48 h, RPMI plus 0.002% Tween-80, read-out: MIC): 0.25 µg/mL | MIC ([6]; Aspergillus fumigatus, 48 h, Without Tween-80, read-out: MIC): 1 µg/mL (≈ 0.783 µM) | MIC ([6]; Without Tween-80, 48 hr): 2 µg/mL (≈ 1.57 µM) | MIC [7]: 0.008 µg/mL | MIC ([8]; ATCC90112, 72 h, 72 hour, RPMI plus 0.002% Tween-80): 0.12 µg/mL | MIC [8, 15]: 0.03 µg/mL | MIC [9, 16]: 0.03 µg/mL | MIC [9, 17]: 1 µg/mL (≈ 0.783 µM) | MIC ([9]; Without Tween-80): 2 µg/mL (≈ 1.57 µM)
SMILES: CC[C@H](C)[C@@H]1NC(=O)[C@@H]2CCCN2C(=O)[C@H](Cc2cccc(-c3ccc(N4CCN(C)CC4)nc3)c2)N(C)C(=O)[C@H](Cc2ccccc2)NC(=O)[C@H](C(C)C)N(C)C(=O)[C@@H]([C@@H](C)CC)OC(=O)[C@H](C(C)(C)O)N(C)C(=O)[C@H](CC(C)C)NC(=O)[C@H](C(C)C)N(C)C1=O [Compound 20] (cyclo(F[X3]PI[NMeV]L[NMeVal(β-OH)][Hmp(2R,3S)][NMeV]))
minimal effective concentration [2, 11]: 0.06 µg/mL | minimal effective concentration ([3]; Aspergillus niger, ATCC16888, 48 h, RPMI plus 0.002% Tween-80, read-out: MEC): 0.008 µg/mL | minimal effective concentration (A. fumigatus MMX 5944; Aspergillus fumigatus, MMX5944, 48 h, RPMI plus 0.002% Tween-80): 0.015 µg/mL | minimal effective concentration ([4]; ATCC13073, 48 h, RPMI plus 0.002% Tween-80, read-out: MEC): 0.03 µg/mL | minimal effective concentration ([5]; 48 h, RPMI plus 0.002% Tween-80): 0.03 µg/mL | minimal effective concentration (A. flavus MMX 5948; [12]): 0.008 µg/mL | minimal effective concentration [6, 13]: 0.06 µg/mL | minimal effective concentration [6, 14]: 0.5 µg/mL | MEC ([6]; Without Tween-80, 48 hr): 1 µg/mL

SMILES: CC[C@H](C)[C@@H]1NC(=O)[C@@H]2CCCN2C(=O)[C@H](Cc2cccc(-c3ccc(OCc4ccccc4)cc3)c2)N(C)C(=O)[C@H](Cc2ccccc2)NC(=O)[C@H](C(C)C)N(C)C(=O)[C@@H]([C@@H](C)CC)OC(=O)[C@H](C(C)(C)O)N(C)C(=O)[C@H](CC(C)C)NC(=O)[C@H](C(C)C)N(C)C1=O [Compound 13] (cyclo(F[X19]PI[NMeV]L[NMeVal(β-OH)][Hmp(2R,3S)][NMeV]))
MIC ([1]; ATCC10231, RPMI plus 0.002% Tween-80): 0.5 µg/mL | MEC [3, 11]: 2 µg/mL | MIC [3, 11]: 8 µg/mL | MIC ([4]; ATCC13073, 48 h, RPMI plus 0.002% Tween-80): > 64 µg/mL | minimal effective concentration ([4]; ATCC13073, 48 h, read-out: MEC, RPMI plus 0.002% Tween-80): 1 µg/mL | MIC (A. flavus MMX 5948; [12]): > 64 µg/mL | minimal effective concentration ([6]; Aspergillus fumigatus, 48 h, read-out: MEC, RPMI plus 0.002% Tween-80): > 64 µg/mL | minimal effective concentration ([6]; Aspergillus fumigatus, 48 h, read-out: MEC, Without Tween-80): > 64 µg/mL | MIC ([6]; Without Tween-80, 48 hr): >64/>64 μg/mL | MIC ([9]; ATCC22019, RPMI plus 0.002% Tween-80): > 64 µg/mL | MIC ([9]; ATCC22019, Without Tween-80): > 64 µg/mL

SMILES: CC[C@H](C)[C@@H]1NC(=O)[C@@H]2CCCN2C(=O)[C@H](Cc2cccc(-c3cccc4c3cnn4C)c2)N(C)C(=O)[C@H](Cc2ccccc2)NC(=O)[C@H](C(C)C)N(C)C(=O)[C@@H]([C@@H](C)CC)OC(=O)[C@H](C(C)(C)O)N(C)C(=O)[C@H](CC(C)C)NC(=O)[C@H](C(C)C)N(C)C1=O [Compound 14] (cyclo(F[X23]PI[NMeV]L[NMeVal(β-OH)][Hmp(2R,3S)][NMeV]))
MIC ([1]; ATCC10231, RPMI plus 0.002% Tween-80, read-out: MIC): 0.03 µg/mL | minimal effective concentration [2, 11]: 1 µg/mL | MIC [2, 18]: > 64 µg/mL | minimal effective concentration ([3]; Aspergillus niger, ATCC16888, RPMI plus 0.002% Tween-80, 48 hr, read-out: MEC): 0.12 µg/mL | MIC ([3]; Aspergillus niger, ATCC16888, RPMI plus 0.002% Tween-80, 48 hr, read-out: MIC): 0.12 µg/mL | MEC (A. fumigatus MMX 5944; [11]): 1 µg/mL | MIC (A. fumigatus MMX 5944; [11]): 8 µg/mL | minimal effective concentration ([4]; ATCC13073, RPMI plus 0.002% Tween-80, 48 hr, read-out: MEC): 0.25 µg/mL | MIC ([4]; ATCC13073, RPMI plus 0.002% Tween-80, 48 hr, read-out: MIC): > 64 µg/mL | minimal effective concentration [5, 11]: 1 µg/mL | MIC [5, 18]: > 64 µg/mL | minimal effective concentration (A. flavus MMX 5948; MMX5948, RPMI plus 0.002% Tween-80, 48 hr): > 64 µg/mL | MIC (A. flavus MMX 5948; MMX5948, RPMI plus 0.002% Tween-80, 48 hr, read-out: MIC): > 64 µg/mL | minimal effective concentration [6, 13]: 0.5 µg/mL | minimal effective concentration [6, 14]: 2 µg/mL | MIC ([6]; Aspergillus fumigatus, RPMI plus 0.002% Tween-80, 48 hr, read-out: MIC): > 64 µg/mL | MIC ([6]; Without Tween-80, 48 hr): > 64 µg/mL | MIC [8, 15]: 0.5 µg/mL | MIC [9, 16]: 0.12 µg/mL | MIC [9, 17]: 1 µg/mL (≈ 0.812 µM)
